Measurements as given in patent US7285666B2, “Pyrazolo[1,5-a] pyridines and medicines containing the same” (Eisai R&D Management Co., Ltd., priority 2001, dated 2007).

Tests used:
[1] = system: CRF-dependent cAMP production in AtT-20 cells; assay: cAMP production inhibition experiment using AtT-20 cells; assay type: cell-based; settings: Mus musculus, AtT20, 30 nM CRF, intracellular cAMP by HTRF, read-out: Adenylate cyclase activity IC50
Description: <cAMP Production Inhibition Experiment Using AtT-20 Cells>
The AtT-20 cells were of a mouse pituitary gland tumor-derived cell line which is known to respond to Corticotropin-Releasing Factor (CRF), leading to activation of the intracellular adenylate cyclase system, production of cyclic AMP (cAMP), and release of adenocorticotropic hormone (ACTH) (Biochem. Biophys. Res. Com. 106, 1364-1371, 1982). For the experiment, the cells (1×10^5) were suspended in D-MEM medium (0.1% FBS) and seeded in a 96-well plate, phosphodiesterase inhibitor (IBMX, Calbiochem) was added to a final concentration of 1 mM, and were cultured at 37° C. for 30 minutes. A dilution of the test compound was added, culturing was continued for 30 minutes at 37° C., and CRF (30 nM) was added and culturing was continued for 30 minutes at 37° C. The cells were collected by centrifugation (500×g, 5 minutes) and lysed with lysis buffer (0.2% dodecyltrimethylammonium bromide), and the intracellular cAMP production was quantified by the HTRF method. A cAMP kit HTRF (CIS Diagnostics Co., Ltd.) was used for the cAMP quantification.
(2) Calculation of cAMP Production Inhibition
The cAMP production of cells to which 30 nM CRF had been added was defined as 100% (control), and the value for each specimen was represented as a percentage (% of control).

[2] = biological target: T1, human CRFR1 (Homo sapiens, UniProt P34998); assay: CRFR binding experiment (125I-sauvagine SPA, membrane fraction of CRFR1-expressing HEK293 cells); settings: 125I-sauvagine displacement, read-out: CRF1 receptor binding affinity IC50
T1 construct: The full-length CRFR1 gene was obtained from a human brain cDNA library (QuickClone™, Clontech) by PCR; expressed in transfected cells
T1 sequence (P34998 24-415): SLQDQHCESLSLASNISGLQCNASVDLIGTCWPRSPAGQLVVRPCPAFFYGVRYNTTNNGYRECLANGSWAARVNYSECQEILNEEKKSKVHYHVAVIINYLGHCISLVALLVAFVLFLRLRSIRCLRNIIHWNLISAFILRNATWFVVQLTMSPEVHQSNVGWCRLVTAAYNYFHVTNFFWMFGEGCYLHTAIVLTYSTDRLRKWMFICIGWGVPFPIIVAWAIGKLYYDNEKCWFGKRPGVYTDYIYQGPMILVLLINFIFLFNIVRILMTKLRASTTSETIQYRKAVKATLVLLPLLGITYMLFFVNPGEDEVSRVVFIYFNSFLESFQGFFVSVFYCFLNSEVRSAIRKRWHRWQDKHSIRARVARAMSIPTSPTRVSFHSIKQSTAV
Description: <CRFR Binding Experiment>
(1) Preparation of CRFR-Expressing Cells
Membrane fraction of the cell highly expressing human CRFR1 was used as the experimental material for a CRFR binding experiment. The CRFR expressing cells were prepared in the following manner. The full-length CRFR1 gene was obtained from a human brain cDNA library (QuickClone™, Clontech) by PCR. The obtained DNA fragments were inserted into cloning vectors and the base sequences were determined. cDNA having the correct base sequence was then relinked to an expression vector (pcDNA3.1™, Invitrogen). The CRFR1 expression vector was introduced into HEK293 cells, and the resistant cells which grew in cell medium containing G418 (1 mg/ml) were cloned by limiting dilution. From these cloned cells, the clones with high binding affinity between the membrane fraction and sauvagine per unit of protein in the binding experiment described below were selected out and used for the final experiment.
(2) Preparation of Membrane Fraction
The cloned cells obtained in (1) were collected and disrupted with an ultrasonic generator in sonicate buffer (D-PBS(−) 10 mM MgCl2, 2 mM EGTA). The suspension obtained from ultrasonic disruption was centrifuged (46,000×g, 10 minutes), and the precipitate was resuspended in sonicate buffer and the same procedure was repeated. The final precipitate was then suspended in binding buffer (D-PBS(−) 10 mM MgCl2, 2 mM EGTA, 1.5% BSA, 0.15 mM bacitracin, 1× protease inhibitor cocktail (COMPLETE™, Boehringer)), and used as the membrane fraction after adjusting the protein concentration to 1.6 mg/ml.
The sauvagine binding experiment was conducted following the protocol of SPA™ (Amersham Pharmacia), using a 96-well plate. The experiment was conducted according to the SPA beads instruction manual. After allowing […] of the membrane fraction protein, 0.5 mg of SPA beads and […] of ^125I-sauvagine (Amersham Pharmacia) to stand at room temperature for 2 hours in the presence of the test compound, the mixture was centrifuged (1000×g, 5 minutes) and the radioactivity of each well was measured with a TopCount™ (Packard).
(4) Calculation of Binding Affinity
The radioactivity for non-radioactive sauvagine added in a 1000-fold excess was subtracted from each value as the non-specific binding, and the radioactivity of a sample without addition of the test substance (control) was defined as 100%, with each value represented as a percentage (% of control).

IC50 [1] [nM]	IC50 [2] [nM]	SMILES
20	50	COCCN(CC(C)C)c1c(SC)nn2c(-c3c(C)cc(C)cc3OC)cccc12 [Example 108, N-Isobutyl-N-[7-(2-methoxy-4,6-dimethylphenyl)-2-(methylsulfanyl)pyrazolo[1,5-a]pyridin-3-yl]-N-(2-methoxyethyl)amine]
400	90	CCCN(CCC)c1c(SC)nn2c(-c3ccc(Cl)cc3Cl)cccc12 [Example 103, N-[7-(2,4-Dichlorophenyl)-2-methylthiopyrazolo[1,5-a]pyridin-3-yl]-N,N-dipropylamine]

Further lines, the molecule ahead of its results:

SMILES	IC50 [1] [nM]	IC50 [2] [nM]
CCCN(CCC)c1c(CC)nn2c(-c3ccc(OC)cc3OC)cccc12 [Example 6, N-[7-(2,4-Dimethoxyphenyl)-2-ethylpyrazolo[1,5-a]pyridin-3-yl]-N,N-dipropylamine]	200	160
CCCN(CCC)c1c(CC)nn2c(-c3ccc(OC)cc3Cl)cccc12 [Example 3, N-[7-(2-Chloro-4-methoxyphenyl)-2-ethylpyrazolo[1,5-a]pyridin-3-yl]-N,N-dipropylamine]	130	
CCc1nn2c(-c3ccc(Cl)cc3Cl)cccc2c1N(CCOC)CC(C)C [Example 27, N-[7-(2,4-Dichlorophenyl)-2-ethylpyrazolo[1,5-a]pyridin-3-yl]-N-isobutyl-N-(2-methoxyethyl)amine]	300	55
CCCN(CCOC)c1c(CC)nn2c(-c3ccc(Cl)cc3Cl)cccc12 [Example 25, N-[7-(2,4-Dichlorophenyl)-2-ethylpyrazolo[1,5-a]pyridin-3-yl]-N-(2-methoxyethyl)-N-propylamine]	550	210
